Data reported in PubChem BioAssay AID1918949 (Molecular Pharmacology Branch, DTP, NCI, 2023).
Where “and” joins values, the source holds several entries; their conditions need not be identical. Identical values can stand only once.

System: K24384-001-R-PDC complex spheroid viability
Assay: Anticancer human tumor K24384-001-R-PDC patient-derived pancreatic adenocarcinoma cell line growth inhibition
Conditions: for viability, T/C: stronger effect = lower value
Outline: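 Drug combinations with the LSD1 inhibitor iadademstat tested on tumor cells co-cultured as spheroids with endothelial cells and mesenchymal stem cells. Concentrations descended in half-log increments from clinical Cmax or 10 microM.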

[1] = curve of first compound, second compound 0.1 µM
[2] = curve of first compound, second compound 0.316 µM
[3] = curve of first compound, second compound 1 µM
[4] = curve of first compound, second compound 3.16 µM
[5] = curve of first compound, second compound 10 µM
[6] = second compound 0.1 µM, first compound 0.00316 µM
[7] = second compound 0.1 µM, first compound 0.01 µM
[8] = second compound 0.1 µM, first compound 0.0316 µM
[9] = second compound 0.1 µM, first compound 0.1 µM
[10] = second compound 0.316 µM, first compound 0.00316 µM
[11] = second compound 0.316 µM, first compound 0.01 µM
[12] = second compound 0.316 µM, first compound 0.0316 µM
[13] = second compound 0.316 µM, first compound 0.1 µM
[14] = second compound 1 µM, first compound 0.00316 µM
[15] = second compound 1 µM, first compound 0.01 µM
[16] = second compound 1 µM, first compound 0.0316 µM
[17] = second compound 1 µM, first compound 0.1 µM
[18] = second compound 3.16 µM, first compound 0.00316 µM
[19] = second compound 3.16 µM, first compound 0.01 µM
[20] = second compound 3.16 µM, first compound 0.0316 µM
[21] = second compound 3.16 µM, first compound 0.1 µM
[22] = second compound 10 µM, first compound 0.00316 µM
[23] = second compound 10 µM, first compound 0.01 µM
[24] = second compound 10 µM, first compound 0.0316 µM
[25] = second compound 10 µM, first compound 0.1 µM
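Also: spheroids exposed to agents for seven days before luminescence viability reading.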
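For viability, T/C in this document: 100% = DMSO vehicle control viability.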

Question: What does the source list for COc1cc(C2c3cc4c(cc3C(OC3OC5COC(C)OC5C(O)C3O)C3COC(=O)C23)OCO4)cc(OC)c1O (stereo unspecified)?
Answer: viability, T/C (compound 0.00949 µM): 96.2% and 95.2%; viability, T/C (compound 0.03 µM): 91.9% and 98.1%; viability, T/C (compound 0.0949 µM): 82% and 74.3%; viability, T/C (compound 0.3 µM): 62.3% and 52.5%; viability, T/C (compound 0.949 µM): 59.8% and 49.5%; viability, T/C (compound 3 µM): 42.1% and 33%; IC50 (curve of compound): 1590 nM and 461 nM

Question: Nc1ccn(C2OC(CO)C(O)C2(F)F)c(=O)n1 (stereo unspecified) was tested. Which viability, T/C (compound 0.000949 µM) did it give?
Answer: 97.6%

Question: What about the viability, T/C (compound 0.003 µM) of the same compound?
Answer: 89% and 86.8%

Question: And the viability, T/C (compound 0.00949 µM)?
Answer: 73% and 73.2%

Question: What about the viability, T/C (compound 0.03 µM) of the same compound?
Answer: 60.7% and 53.4%

Question: What about the viability, T/C (compound 0.0949 µM) of the same compound?
Answer: 44% and 42.3%

Question: And the viability, T/C (compound 0.3 µM)?
Answer: 33.9% and 28.2%

Question: And the IC50 (curve of compound)?
Answer: 62.5 nM and 45.8 nM

Question: What does the source list for COc1ccc([C@@H](O)c2cc(-c3ncnc4cc(N5CCOCC5)ccc34)c(F)cc2Cl)nn1?
Answer: viability, T/C (compound 0.0316 µM): 102% and 111%; viability, T/C (compound 0.1 µM): 94.1% and 102%; viability, T/C (compound 0.316 µM): 94.3% and 82.1%; viability, T/C (compound 1 µM): 68.3% and 63.3%; viability, T/C (compound 3.16 µM): 39.1% and 44.5%; viability, T/C (compound 10 µM): 15.3% and 16.4%; IC50 (curve of compound): 2070 nM and 2110 nM

Question: For CC[C@@]1(O)C(=O)OCc2c1cc1n(c2=O)Cc2cc3c(CN(C)C)c(O)ccc3nc2-1 + NC1CC1c1ccc(-c2cccc(O)c2)cc1, which IC50 [1] is on record?
Answer: 10.4 nM

Question: What about the IC50 [2] of the same compound?
Answer: 12.1 nM

Question: What about the IC50 [3] of the same compound?
Answer: 9.47 nM

Question: What about the IC50 [4] of the same compound?
Answer: 8.68 nM

Question: What about the IC50 [5] of the same compound?
Answer: 11.4 nM

Question: And the viability, T/C (second compound 0.1 µM, first compound 0.000316 µM)?
Answer: 72.3%

Question: What about the viability, T/C (second compound 0.1 µM, first compound 0.001 µM) of the same compound?
Answer: 81.5%

Question: What about the viability, T/C [6] of the same compound?
Answer: 79.9%

Question: And the viability, T/C [7]?
Answer: 50.3%

Question: What about the viability, T/C [8] of the same compound?
Answer: 43.7%

Question: What about the viability, T/C [9] of the same compound?
Answer: 33.2%

Question: And the viability, T/C (second compound 0.316 µM, first compound 0.000316 µM)?
Answer: 76.1%

Question: What about the viability, T/C (second compound 0.316 µM, first compound 0.001 µM) of the same compound?
Answer: 90.1%

Question: What about the viability, T/C [10] of the same compound?
Answer: 62.9%

Question: What about the viability, T/C [11] of the same compound?
Answer: 53.5%

Question: What about the viability, T/C [12] of the same compound?
Answer: 43.7%

Question: And the viability, T/C [13]?
Answer: 35.9%

Question: What about the viability, T/C (second compound 1 µM, first compound 0.000316 µM) of the same compound?
Answer: 78.5%

Question: And the viability, T/C (second compound 1 µM, first compound 0.001 µM)?
Answer: 89%

Question: What about the viability, T/C [14] of the same compound?
Answer: 73.3%

Question: What about the viability, T/C [15] of the same compound?
Answer: 49.8%

Question: And the viability, T/C [16]?
Answer: 33.5%

Question: And the viability, T/C [17]?
Answer: 35.3%

Question: And the viability, T/C (second compound 3.16 µM, first compound 0.000316 µM)?
Answer: 75.8%

Question: And the viability, T/C (second compound 3.16 µM, first compound 0.001 µM)?
Answer: 79.2%

Question: What about the viability, T/C [18] of the same compound?
Answer: 77.6%

Question: What about the viability, T/C [19] of the same compound?
Answer: 46.1%

Question: What about the viability, T/C [20] of the same compound?
Answer: 42%

Question: What about the viability, T/C [21] of the same compound?
Answer: 33.9%

Question: And the viability, T/C (second compound 10 µM, first compound 0.000316 µM)?
Answer: 79%

Question: What about the viability, T/C (second compound 10 µM, first compound 0.001 µM) of the same compound?
Answer: 81.7%

Question: And the viability, T/C [22]?
Answer: 84.4%

Question: What about the viability, T/C [23] of the same compound?
Answer: 51.1%

Question: And the viability, T/C [24]?
Answer: 40.9%

Question: And the viability, T/C [25]?
Answer: 41.1%

Question: With CC1COCCN1c1cc(-c2ccnn2C)c2ccnc(-c3ccn[nH]3)c2n1 (stereo unspecified) + NC1CC1c1ccc(-c2cccc(O)c2)cc1 as the compound, how does the IC50 [1] read?
Answer: 4.71 nM

Question: And the IC50 [2]?
Answer: 326 nM

Question: And the IC50 [3]?
Answer: 16.3 nM

Question: And the IC50 [4]?
Answer: 10.4 nM

Question: And the IC50 [5]?
Answer: 343 nM

Question: What about the viability, T/C [6] of the same compound?
Answer: 51.2%

Question: And the viability, T/C [7]?
Answer: 51.4%

Question: What about the viability, T/C [8] of the same compound?
Answer: 40.2%

Question: What about the viability, T/C [9] of the same compound?
Answer: 44.7%

Question: And the viability, T/C (second compound 0.1 µM, first compound 0.316 µM)?
Answer: 46.9%

Question: And the viability, T/C (second compound 0.1 µM, first compound 1 µM)?
Answer: 38%

Question: And the viability, T/C [10]?
Answer: 56.1%

Question: What about the viability, T/C [11] of the same compound?
Answer: 46.6%

Question: What about the viability, T/C [12] of the same compound?
Answer: 51%

Question: And the viability, T/C [13]?
Answer: 45.1%

Question: What about the viability, T/C (second compound 0.316 µM, first compound 0.316 µM) of the same compound?
Answer: 53.5%

Question: What about the viability, T/C (second compound 0.316 µM, first compound 1 µM) of the same compound?
Answer: 34%

Question: What about the viability, T/C [14] of the same compound?
Answer: 53%

Question: What about the viability, T/C [15] of the same compound?
Answer: 59.9%

Question: What about the viability, T/C [16] of the same compound?
Answer: 40.9%

Question: And the viability, T/C [17]?
Answer: 42.9%

Question: What about the viability, T/C (second compound 1 µM, first compound 0.316 µM) of the same compound?
Answer: 43.8%

Question: And the viability, T/C (second compound 1 µM, first compound 1 µM)?
Answer: 35.8%

Question: And the viability, T/C [18]?
Answer: 56.5%

Question: And the viability, T/C [19]?
Answer: 52.3%

Question: And the viability, T/C [20]?
Answer: 43.7%

Question: And the viability, T/C [21]?
Answer: 39.7%

Question: And the viability, T/C (second compound 3.16 µM, first compound 0.316 µM)?
Answer: 48.1%

Question: And the viability, T/C (second compound 3.16 µM, first compound 1 µM)?
Answer: 37%

Question: And the viability, T/C [22]?
Answer: 64.2%

Question: And the viability, T/C [23]?
Answer: 60.1%

Question: What about the viability, T/C [24] of the same compound?
Answer: 51.1%

Question: What about the viability, T/C [25] of the same compound?
Answer: 59%

Question: What about the viability, T/C (second compound 10 µM, first compound 0.316 µM) of the same compound?
Answer: 51.8%

Question: And the viability, T/C (second compound 10 µM, first compound 1 µM)?
Answer: 31.7%
